Experimental findings from US12129244B2, “Modulators of Mas-related G-protein receptor X2 and related products and methods” (Escient Pharmaceuticals, Inc., priority 2022, dated 2024) are described below.

Data set [1] can be described thus: Mouse Pharmacokinetics Studies (50 mg/kg oral gavage, plasma LC-MS/MS). It is filed as in vivo. The note with it: Male C57BL/6 mice, non-fasted; for AUC(0-t) / Cmax / Tmax: mouse; for Tmax: read-out: PK: Tmax. How it is done:
Compounds were formulated in 5% DMSO, 5% Solutol, and 90% PBS without Ca and Mg (pH 7.4) at a concentration of 5 mg/mL. Male C57BL/6 mice (n=3/compound) were administered a 50 mg/kg dose of each compound by oral gavage under a non-fasted condition. Blood samples were collected via the saphenous vein onto K2-EDTA at 0.25, 0.5, 1, 2, 4, 8 and 24 hours after dosing, and plasma was prepared and stored at −80° C. until analysis. Plasma sample preparation for analysis was done by protein precipitation using acetonitrile (including Verapamil as an internal standard) followed by centrifugation. Compound concentrations were determined in extracted plasma using LC-MS/MS relative to a 12-point standard curve covering the 1 to 4000 nM range. Non-compartmental analysis using Phoenix WinNonlin was used to estimate pharmacokinetic parameters including area under the curve, clearance, and half-life. The administered dose was confirmed by analysis of residual dosing material by UPLC-UV relative to a single point calibration sample.

Data set [2] relates to Human LAD2 cells. The data set is described as follows: Mast Cell Beta-Hexosaminidase Release Assay. It counts as cell-based. The note with it: 500 nM Cortistatin-14, read-out: MRGPRX2 Antagonist Activity. How it is done:
Human LAD2 cells (NIH) were maintained in an incubator at 37° C. with 5% CO2 and cultured in StemPro-34 serum-free media (Gibco 10639011) supplemented with 2 mM L-glutamine, 100 U/ml penicillin, […] streptomycin and 100 ng/ml SCF (Invitrogen PEP0860), at a concentration of 2-5×10^5 cells/mL, with hemidepletion every 1-2 weeks.
Cells were transferred to SCF-Free medium at 2.5×10^5 cells/mL and kept in an incubator overnight. On the day of the assay, cells were washed twice in Assay Buffer (final concentrations 10 mM HEPES, 137 mM NaCl, 5.6 mM D-glucose, 2.7 mM KCl, 1 mM MgCl, 1.8 mM CalCl2, 0.4 mM Na2HPO4·7H2O, 0.04% BSA, pH=7.4) and plated in a 96-well v-bottom plate at 20,000 cells per well in 80 μL Assay Buffer. Antagonist compounds solubilized at 10 mM in DMSO were diluted in Assay Buffer to 10× final desired concentrations as a 10-point curve (10 μM final top concentration with 1:3 serial dilutions) and 10 μL added per well. Plates were then incubated for 1 hour at 37° C. Agonists were diluted in Assay Buffer to 10× desired concentrations and 10 μL of the appropriate agonist added to each well. The final concentration of Cortistatin-14 (Tocris 3374) used in antagonist assays was 500 nM. Final concentrations of DMSO were kept consistent across the plate. Plates were then incubated in a warm air oven for 30 minutes at 37° C., followed by centrifugation at 4° C. for 5 minutes at 450×g. 50 μL supernatant from each well was then transferred to a 96-well flat bottom plate containing 100 μL substrate solution per well (3.5 mg/mL p-Nitrophenyl-N-acetyl-β-D-glucosaminide (Sigma 487052) in Citrate Buffer containing a final concentration of 40 mM Citric Acid, 20 mM Na2HPO4·7H2O, pH=4.5). To the cell pellets left in the remaining assay buffer, 150 μL 0.1% Triton-X-100 was then added to each well, resuspended by pipetting up and down, and 50 μL cell lysates transferred to a second 96-well flat bottom plate containing 100 μL substrate solution per well. Plates containing transferred supernatant and cell lysates were then incubated in a warm air oven for 90 minutes at 37° C. After incubation, 50 μL of 400 mM Glycine buffer (pH 10.7) was added into each well and the plate was read on a Molecular Devices SpectraMax iD5 plate reader (absorbance at 405 nm with reference filter at 620 nm). After background subtraction, the percentage degranulation (percent beta-hexosaminidase release) was calculated as 100×(supernatant values)/(supernatant+lysate values), followed by analysis using GraphPad Prism software to calculate an IC50 value for each compound.
The activity ranges are denoted as follows: “+++++” denotes antagonist activity <100 nM; “++++” denotes antagonist activity between 100 and 500 nM; “+++” denotes activity between 501 and 1000 nM; “++” denotes activity between 1001 and 2500 nM; and “+” denotes activity >2500 nM.

Data set [3] concerns the target T1, human MRGPRX2 (Homo sapiens, UniProt Q96LB1).
T1 construct: expressed in transfected cells
T1 sequence (Q96LB1 1-330): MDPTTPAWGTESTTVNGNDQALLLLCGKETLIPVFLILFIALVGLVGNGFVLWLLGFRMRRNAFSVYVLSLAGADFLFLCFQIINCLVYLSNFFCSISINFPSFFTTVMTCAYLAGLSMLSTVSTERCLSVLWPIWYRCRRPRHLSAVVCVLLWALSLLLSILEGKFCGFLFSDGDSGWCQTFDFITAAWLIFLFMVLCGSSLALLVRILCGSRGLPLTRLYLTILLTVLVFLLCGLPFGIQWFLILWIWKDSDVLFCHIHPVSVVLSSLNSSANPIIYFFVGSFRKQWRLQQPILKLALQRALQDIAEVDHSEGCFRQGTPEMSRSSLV
Nature of the data set: MRGPRX2 activity: IP-One HTRF antagonist assay in CHO cells versus Cortistatin-14. It counts as cell-based. The following applies: CHO cells stably expressing human MRGPRX2; versus 0.3 uM Cortistatin-14 agonist; IP-1 HTRF. The essentials:
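CHO cells stably expressing human MRGPRX2 received compound as a 10-point curve (30 uM top, 1:3 dilutions) plus 0.3 μM Cortistatin-14 in LiCl buffer, pH 8. Incubation 1 h at 37 °C, then 1 h at room temperature. IP-1 accumulation read by HTRF; IC50 from ratio curves, reported as activity bins.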

Consider `O=C(N[C@@H]1CCC[C@H](Nc2cc(C(F)(F)F)nc3ccc(Cl)cc23)C1)c1cn(CC(F)(F)F)nc1Cl` [Example 30, 3-chloro-N-((1R,3S)-3-((6-chloro-2-(trifluoromethyl)quinolin-4-yl)amino)cyclohexyl)-1-(2,2,2-trifluoroethyl)-1H-pyrazole-4-carboxamide], for which, in data set [1], the “AUC 0-24” value was found to be 150 µM·h, the AUC(0-t) is 150 µM·h, the Cmax was 13 µM and the time of peak concentration (Tmax) stood at 0.5 h. In addition, the IC50 in data set [2] was under 100 nM. This molecule also returned an IC50 in data set [3] of under 100 nM.

On to `COc1ccc(C(=O)N[C@@H]2CCC[C@H](Nc3cc(C(F)(F)F)nc4ccc(Cl)cc34)C2)cn1` [Example 4-414], for which, in data set [1], the “AUC 0-24” value was 140 µM·h, the AUC(0-t) came out at 140 µM·h, the peak level (Cmax) was 11 µM and the time to peak (Tmax) worked out at 4 h. The IC50 in data set [2] was under 100 nM. This molecule also came in with an IC50 in data set [3] of under 100 nM.

For `N#Cc1nn(CC(F)(F)F)cc1C(=O)N[C@@H]1CCC[C@H](Nc2cc(C(F)(F)F)nc3ccc(Cl)cc23)C1` [Example 32, N-[(1R,3S)-3-[[6-chloro-2-(trifluoromethyl)-4-quinolyl]amino]cyclohexyl]-3-cyano-1-(2,2,2-trifluoroethyl)pyrazole-4-carboxamide], in data set [1], the “AUC 0-24” value is 390 µM·h, the AUC(0-t) was determined as 390 µM·h, the highest level (Cmax) was 39 µM and the Tmax was determined as 4.7 h. Further, the IC50 in data set [2] is under 100 nM. Also, in data set [3], the IC50 is under 100 nM.

Turning to `CC(C)(O)Cn1cc(C(=O)N[C@@H]2CCC[C@H](Nc3cc(C(F)(F)F)nc4ccc(Cl)cc34)C2)c(Cl)n1` [Example 31, 3-chloro-N-[(1R,3S)-3-[[6-chloro-2-(trifluoromethyl)-4-quinolyl]amino]cyclohexyl]-1-(2-hydroxy-2-methylpropyl)pyrazole-4-carboxamide], in data set [1], the “AUC 0-24” value turned out to be 740 µM·h, the AUC(0-t) was found to be 740 µM·h, the highest level (Cmax) was 74 µM and the time of peak concentration (Tmax) was 1.7 h. The IC50 in data set [2] is under 100 nM. In data set [3], the IC50 was under 100 nM.

Regarding `COc1ccc(C(=O)N[C@@H]2CCC[C@H](Nc3cc(C(F)(F)F)nc4ccc(C)cc34)C2)cc1` [Example 1-3], in data set [1], the “AUC 0-24” value came out at 83 µM·h, the AUC(0-t) came to 83 µM·h, the highest level (Cmax) was 13 µM and the Tmax worked out at 0.83 h. Also, in data set [2], the IC50 fell in the range of 100 to 500 nM. In data set [3], this molecule yielded an IC50 of under 100 nM.
